Entries after “also recorded” stand apart in the source; their conditions may differ. Where no end group is shown, it is not given here.
What was measured:
[1] = test system: Human coronary artery endothelial cells (ECs); test: Endothelial cell proliferation; format: cell-based; settings: highest concentration tested (final concentrations 35, 3.5, and 0.35 μM); 48 hours
Procedure: Human coronary artery endothelial cells (ECs) (Lonza, Walkersville, Md.) were seeded in 96-well plates at a cell density of 1.5×10^3 cells/well. Cells were allowed to adhere to the surface for 24 hours and adherent ECs were stained using cell tracker green (Invitrogen, Carlsbad, Calif.). Initial cell number was determined by measuring fluorescence of each well with 492 nm excitation and 517 nm emission.
DS-SILY18 was solubilized in water at a concentration of […] and diluted in water 10 fold for concentrations of 175, 17.5, and 1.75 μM. The DS-SILY solution was diluted 5 fold with cell media for final concentrations of […]. The control consisted of diluting water 5 fold with cell media. 100 μL of media with DS-SILY was added to each well and the cell number was determined 48 hours later by measuring fluorescence. The percent change in cell number in each well was calculated.

Fibrillar collagen [2] = test: Binding affinity of biotin labeled peptidoglycan to fibrillar collagen; settings: biotin labeled peptidoglycans, fitted saturation binding curves
Procedure: Fibrillar collagen (Chronolog, Havertown, Pa.) was coated onto the surface of a 96-well high bind plate (Costar) at a concentration of 50 μg/mL diluted in isotonic glucose. Plates were covered and incubated overnight at 4° C. Unbound collagen was removed by rinsing 3 times with 1×PBS pH 7.4. Plates were then blocked with 1% BSA for 3 hours at room temperature. Peptidoglycan was dissolved at varying concentrations in 1×PBS pH 7.4 containing 1% BSA and were immediately added to the collagen surfaces, and allowed to incubate for 15 min at room temperature. Plates were then rinsed 3 times with 1×PBS pH 7.4 containing 1% BSA. Streptavidin-HRP solution (R&D Systems, Minneapolis, Minn.) was then added to the plates and incubated for 20 minutes at room temperature. […] The color evolving reaction was stopped with 50 μL 2N sulfuric acid and absorbance was measured at 450 nm using an M5 UV Vis Spectrophotometer (Molecular Devices). Plate imperfections (540 nm) were subtracted from absorbance values.
The binding affinities of biotin labeled peptidoglycans, labeled using protocols known in the art, DS-SILY4 and DS-SILY18 were calculated by fitting the saturation binding curves and calculating the inflection point. […]

[3] = test system: Whole blood on fibrillar collagen; test: Inhibition of whole blood binding to collagen under flow; format: cell-based; settings: 50 μM for 15 min; 5.6 mL/hr, shear rate 1000 s^−1, 5 min of flow
Procedure: Flow kits were obtained from Ibidi (Martinsried, Germany). Each channel was coated with fibrillar collagen as described for static microplate studies. Excess collagen was removed from the flow channel by extensive rinsing with 1×PBS through the channel. DS-SILY18 was incubated in the channel at a concentration of 50 μM for 15 min at 37° C., and unbound peptidoglycan was rinsed with 1×PBS. Control channels consisted of collagen not treated with peptidoglycan.
Whole blood was pushed through the flow channels by a syringe pump at a flow rate of 5.6 mL/hr, corresponding to a physiologically relevant shear rate of 1000 s^−1 (Badimon L, Badimon J J, Turitto V T, Vallabhajosula S, Fuster V. Platelet thrombus formation on collagen type I—a model of deep vessel injury—influence of blood rheology, von Willebrand Factor, and blood-coagulation. Circulation 1988; 78(6):1431-42). After 5 min of flow, 1×PBS pH 7.4 was pushed through at the same flow rate for 10 min to wash unbound cells. Brightfield images (n=3) were taken of each flow channel with a 10× objective. Images were thresholded and quantified for cellular coverage using ImageJ (NIH, Bethesda, Md.) and MatLab (Mathworks, Natick, Mass.) respectively. Control channels were assumed to have complete cellular coverage.

[4] = test system: Human platelets on Type I fibrillar collagen; test: Inhibition of platelet activation on fibrillar collagen after 24 hour rinse (PF4, NAP2); format: cell-based; settings: unbound peptidoglycan rinsed over 24 hours; PF-4 and Nap-2 release
Procedure: Type I fibrillar collagen from Chronolog was diluted in isotonic glucose to a concentration of 50 μg/mL. 50 μL of collagen solution was added to each well of a high bind 96-well plate. The plate was incubated overnight at 4° C., and then rinsed 3× with 1×PBS. For microplate assays, peptidoglycan was diluted in 1×PBS at concentrations between 0.0001 μM to 100 μM and 50 μL solution was added to the collagen coated wells. DS, peptide, or 1×PBS were also added to collagen coated wells as controls. Treatments were incubated at 37° C. with shaking at 200 rpm for 15 min. Wells were then rinsed of unbound treatment by removing the treatment solution, adding PBS, and shaking the wells for 24 hours. During the 24 hours, PBS solution was changed 3 times.
Human whole blood was collected from healthy volunteers by venipuncture. The first 5 mL of blood was discarded and approximately 20 mL was then collected into citrated glass vacutainers (BD Bioscience). Blood was centrifuged in the glass tube for 20 min at 200 g at 25° C. The top layer of the centrifuged blood, the platelet rich plasma (PRP), was used for platelet experiments.
PRP (50 μL/well) was added to the microplate for 1 hour at room temperature without shaking. After 1 hour of incubation, 45 μL of PRP was removed from each well and added to a microcentrifuge tube containing […] ETP (107 mM EDTA, 12 mM theophylline, and 2.8 mM prostaglandin E1) to inhibit further platelet activation. These tubes were spun at 4° C. for 30 min at 2000 g to pellet the platelets. The supernatant (platelet serum) was collected for ELISA studies to test for the presence of platelet activation markers PF-4 and NAP2. Sandwich ELISAs were utilized in order to detect each protein. The components for both sandwich ELISAs were purchased from R&D Systems and the provided protocols were followed. Platelet serum was diluted 10,000 times in 1% BSA in 1×PBS for values to fall within a linear range.
Platelet activation was measured through release of platelet factor 4 (PF4) and β-thromboglobulin (NAP2). […] Since the high SILY/DS ratio is expected to provide higher binding affinity to the collagen surface due to multiple interactions, peptidoglycans with the higher SILY/DS ratios were prepared.
The number of peptides per DS molecule was further increased to 18 to create the peptidoglycan DS-SILY18, and the concentration of molecule needed to inhibit platelet activation was tested. […] Within solubility limits, the number of peptides can be increased to achieve maximal platelet inhibition as well as to reduce diffusion over time, where a higher level of peptidoglycans on the denuded vessel wall is sustained.

Fibrillar collagen [5] = test: Peptidoglycan diffusion from collagen surface; format: binding; settings: after 1 week of extensive rinsing at 37° C.; applied at 10 μM
Procedure: The peptidoglycan OS-SILY18-biotin was dissolved at 10 μM in 1×PBS pH 7.4 with 2% BSA and was incubated on fibrillar collagen coated plates prepared as described. The plate was incubated at 37° C. on an orbital shaker and was rinsed extensively with 1×PBS pH 7.4. At various time points up to 11 days, OS-SILY18-biotin was detected on the surface as described for the binding affinity studies. The curve of diffusion of peptidoglycan from the collagen surface was fitted using a hyperbolic decay.
The diffusion of the peptidoglycan DS-SILY18 from a collagen surface was measured by incubating at 37° C. and rinsing extensively in order to mimic blood flow in vivo. Peptidoglycan was incubated on fibrillar collagen surfaces and detected by the same methods for calculating binding affinities. […] It is estimated that complete endothelial cell regrowth occurs within 1 week of balloon injury, and thus this time frame is useful for preventing platelet binding until endothelial cells grow back and provide a permanent cover to the underlying collagen.

Kd (Fibrillar collagen [2]): 24 nM
Substance: DS-SILY18: dermatan sulfate with 18 peptides of the sequence RRANAALKAGELYKSILYGC linked to the glycan (RRANAALKAGELYKSILYGC-NH2; also: 18 copies linked to dermatan sulfate)
endothelial cell proliferation (percent change in cell number) [1]: significant increase in cell proliferation
blood cell binding to collagen under flow [3]: inhibition; also recorded: much less blood cell binding to collagen
concentration at which maximal inhibition of platelet activation was achieved [4]: 10 µM
equivalent concentration remaining bound on collagen surface (Fibrillar collagen [5]): approximately 10 nM
